Assay results from patent US20120309087A1, “CANCER THERAPY” (University Court of The University of Dundee, priority 2006, published 2012).

Assays:
[1] = tested on: ARE-driven luciferase activity in AREc32 cells; test: Antagonism of induced ARE-driven luciferase activity in AREc32 cells; type: cell-based, human
[2] = tested on: GST, GCLC and NQO1 in the small intestine; test: ARE-regulated proteins in small intestine of mice on vitamin A deficient diet; type: in vivo; settings: wild-type mice; ATRA i.p. 10 mg/kg daily for last 2 weeks of VAD diet
Procedure: Wild-type (nrf2^+/+) and knockout (KO, nrf2^−/−) mice, 8 weeks old, were placed on control or vitamin A deficient (VAD) diet for six weeks as described in “Materials and Methods II”. Portions (5 μg protein) of crude extracts from small intestine of wild-type and KO mice were subjected to Western blotting with specific antibodies against NQO1, GstM5, GstA1/2 and GCLC. Each lane contains a sample from an individual mouse. […] These animals were sacrificed and immunoblotting for GST, GCLC and NQO1 performed as before.
Homozygous Nrf2 KO mice and mouse genotyping were as described previously (Itoh et al., 1997). Two month old, C57BL/6 nrf2^−/− and nrf2^+/+ male mice were used in this study. Animals were maintained in a 12-h light-dark cycle, with free access to food and water. The mice were weighed daily during the experiment period. All animal procedures were carried out under UK Home Office license and after gaining local ethical committee approval.
Two feeding experiments were carried out. In Experiment 1, at the first stage, which lasted for four weeks, Nrf2 (+/+) mice were maintained on a retinoic acid deficient VAD diet (Special Diet Services, Witham, Essex, UK). […] In experiment 2, Nrf2 (−/−) mice were maintained on control or VAD diet for six weeks. […]

[3] = tested on: AKR1C protein in Caco-2 cells; test: AKR1C protein in Caco-2 cells (Western blotting); type: cell-based, human; settings: sulforaphane 5 μM, BTB09463 5 μM or Retinoic acid 1 μM, 24 hrs
Procedure: Method: AREc32 cells were seeded out in 96 well plates and treated with DMSO (control), tBHQ (50 μM), tBHQ+BTB09463 (5 μM) or tBHQ+Retinoic acid (1 μM). After 24 hours incubation, cells were washed and lysed before measuring luciferase activity. BTB09463 is 1-{4-[(3,4-dichlorobenzyl)oxy]phenyl}ethan-1-one. […] Method: AREc32 cells were seeded out in 96 well plates and dosed with BTB09463 (2.5, 5 or 10 μM) for 0, 24 or 48 hrs before treatment with tBHQ (50 μM). 24 hours after the addition of tBHQ, cells were washed and lysed before measuring luciferase activity. […] Method: ARE c32 cells were seeded out in 96 well plates and treated with DMSO (control), tBHQ (50 μM), tBHQ+retinoid (0.25, 0.5 and 1 μM). After 24 hours incubation, cells were washed and lysed before measuring luciferase activity. […] See FIG. 16 Method: A. Caco-2 cells were treated with the known ARE-gene inducer sulforaphane (5 μM), either alone or concomitantly with BTB09463 (5 μM) or Retinoic acid (1 μM). After 24 hrs, cell lysates were prepared and Western blotting performed to measure the levels of AKR1C protein. B. MCF7 cells were treated with sulforaphane (5 μM), either alone or concomitantly with BTB09463 (5 μM). After 24 hrs, cell lysates were prepared and Western blots performed to detect the levels of AKR1C and NQO1; GAPDH was used as a loading control in MCF7 cells. […] Method: Caco-2 cells were treated with DMSO (control), BTB09463 (5 μM), sulforaphane (5 μM) or a combination of sulforaphane plus BTB09463. After 24 hrs treatment, cells were harvested and RNA isolated. cDNA for each sample was generated by reverse transcription and subsequently used in real time PCR analysis of gene transcription (TaqMan analysis) for the ARE-driven genes AKR1C1 and NQO1. Data was normalised to the internal control 18S RNA and the relative levels of AKR1C1 and NQO1 calculated using the comparative CT method. […] Method: MCF7 cells were treated with the known ARE-gene inducer sulforaphane (5 μM), either alone or with various retinoids (0.5 μM). After 24 hrs, cell lysates were prepared and Western blots were performed to detect the levels of AKR1C protein present. […] See FIG. 19 Method: ARE reporter cell line AREc23 was seeded into 96 well plates and treated with a previously determined non-toxic concentration of cytotoxic drug. After 24 hours incubation, cells were washed and lysed before measuring luciferase activity. […] See FIG. 20a Method: ARE reporter cell line AREc23 was seeded into 96 well plates and treated with DMSO (control), Carmustine (100 μM), Carmustine+BTB09463 (5 μM) or Carmustine+Retinoic acid (5 μM) After 24 hours incubation, cells were washed and lysed before measuring luciferase activity. […] After 24 hours incubation, cells were washed and lysed before measuring luciferase activity. […]

[4] = tested on: AKR1C1, NQO1, GCLC, GCLM mRNA in A549 cells; test: Constitutive mRNA of ARE-driven genes in A549 cells (Taqman); type: cell-based, human; settings: 24 hrs
[5] = molecular target: interaction between RARα and Nrf2 (Homo sapiens, UniProt P10276); test: Co-immunoprecipitation of RARα and Nrf2; type: binding; settings: co-immunoprecipitation experiments
[6] = tested on: AKR1C mRNA in AREc32 cells; test: AKR1C mRNA in AREc32 cells (TaqMan)
[7] = tested on: AKR1C protein in AREc32 cells; test: AKR1C protein in AREc32 cells (western blotting); settings: 1 μM ATRA, 10 μM tBHQ; scanning of the Western blots
[8] = tested on: Nrf2; test: Nuclear Nrf2 level in AREc32 cells (western blot of nuclear extracts); settings: 10 μM tBHQ plus 1 μM ATRA, 24 h
[9] = tested on: binding of Nrf2 to an ARE sequence; test: Biotinylated ARE oligonucleotide pull-down assay, AREc32 nuclear extracts; settings: 10 μM tBHQ with 1 μM ATRA, 24 h
[10] = tested on: protein complexes binding to an ARE sequence; test: Electrophoretic mobility shift assay with ARE probe, AREc32 nuclear extracts; settings: 10 μM tBHQ with 1 μM ATRA, 24 h
[11] = 1 μM ATRA with 10 μM tBHQ, acrolein, NF or Sul, 24 h

Sequence of interaction between RARα and Nrf2 (P10276 whole entry): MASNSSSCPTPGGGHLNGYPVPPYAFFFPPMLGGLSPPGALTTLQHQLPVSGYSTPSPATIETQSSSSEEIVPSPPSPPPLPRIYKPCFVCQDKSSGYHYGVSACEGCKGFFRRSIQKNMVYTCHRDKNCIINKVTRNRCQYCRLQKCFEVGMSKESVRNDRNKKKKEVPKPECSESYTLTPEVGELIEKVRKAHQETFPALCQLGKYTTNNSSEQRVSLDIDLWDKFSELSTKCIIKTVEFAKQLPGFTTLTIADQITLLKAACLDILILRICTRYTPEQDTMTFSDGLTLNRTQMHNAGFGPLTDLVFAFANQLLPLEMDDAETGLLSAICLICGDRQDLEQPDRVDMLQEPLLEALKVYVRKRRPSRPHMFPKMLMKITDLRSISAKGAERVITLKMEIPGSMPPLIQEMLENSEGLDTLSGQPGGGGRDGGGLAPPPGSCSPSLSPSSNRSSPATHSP
Sequence of interaction between RARα and Nrf2 (Q16236 whole entry partner): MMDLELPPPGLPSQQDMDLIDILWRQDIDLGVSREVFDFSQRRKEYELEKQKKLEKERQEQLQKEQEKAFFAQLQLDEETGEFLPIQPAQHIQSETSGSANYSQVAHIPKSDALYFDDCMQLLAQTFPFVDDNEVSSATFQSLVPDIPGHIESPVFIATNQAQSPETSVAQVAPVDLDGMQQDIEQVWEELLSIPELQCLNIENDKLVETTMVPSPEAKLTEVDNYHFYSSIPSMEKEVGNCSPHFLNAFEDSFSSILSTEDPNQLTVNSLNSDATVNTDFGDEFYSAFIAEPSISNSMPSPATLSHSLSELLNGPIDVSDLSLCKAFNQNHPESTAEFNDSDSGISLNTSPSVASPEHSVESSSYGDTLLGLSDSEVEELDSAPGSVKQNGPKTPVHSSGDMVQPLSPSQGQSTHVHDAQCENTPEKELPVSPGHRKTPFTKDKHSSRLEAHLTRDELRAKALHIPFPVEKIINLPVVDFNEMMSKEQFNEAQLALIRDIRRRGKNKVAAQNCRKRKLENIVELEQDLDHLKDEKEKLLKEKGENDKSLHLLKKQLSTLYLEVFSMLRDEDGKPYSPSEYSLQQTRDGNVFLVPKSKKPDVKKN

CC1=C(/C=C/C(C)=C/C=C/C(C)=C/C(=O)O)C(C)(C)CCC1 [ATRA, all trans-retinoic acid]
effect on increase in ARE-driven luciferase activity by inducing agents [1, 11]: significantly attenuated
luciferase activity following subtraction of the DMSO control [1, 11]: almost complete ablation of luciferase activity
induction of ARE-driven luciferase activity by anticancer drugs ([1]; 1 μM ATRA with cisplatin, melphalan, chlorambucil or BCNU, no BSO): prevented
ARE responses to anticancer drugs after BSO pre-treatment ([1]; 1 μM ATRA, 50 μM BSO pre-treatment, after subtraction of DMSO control): reduced almost to background levels
lag phase before increase of luciferase activity ([1]; 10 μM tBHQ plus 1 μM ATRA simultaneously): 16 h
suppression of tBHQ induction of luciferase ([1]; 50 μM tBHQ + 1 μM Retinoic acid, 24 h): ~75%
carmustine-mediated induction of luciferase activity ([1]; Carmustine 100 μM + BTB09463 5 μM or Retinoic acid 5 μM, 24 hours): completely suppress
induction of ARE-driven genes (GstM5, GCLC, NQO1, GstA1) by VAD diet in the small intestine [2]: almost completely reversed
sulforaphane induction of AKR1C protein [3]: dramatically reduced
constitutive expression of AKR1C1 mRNA ([4]; BTB09463 1, 5, 20, 40 μmol/l or retinoids 0.050, 0.20, 0.50, 2.0 μmol/l): inhibited the constitutive expression of AKR1C1 in a concentration-dependent manner
constitutive mRNA levels of NQO1, GCLC and GCLM ([4]; BTB09463 1-40 μmol/l or retinoic acid 0.050-2.0 μmol/l): repressed the constitutive mRNA levels of NQO1, GCLC and GCLM in a concentration-dependent manner
association between RARα and Nrf2 [5]: greatly promoted
inhibition of tBHQ induction of AKR1C1 mRNA ([6]; 1 μM ATRA, after subtracting the DMSO control): approximately 85%
induction of AKR1C1 mRNA by tBHQ on co-incubation ([6]; 10 μM tBHQ plus 1 μM ATRA, 24 h): 3 fold
reduction of tBHQ-induced AKR1C protein [7]: approximately 50%
nuclear translocation / nuclear concentration of Nrf2 [8]: did not block nuclear translocation of Nrf2
binding of Nrf2 to the ARE (pull-down) [9]: inhibited the binding of Nrf2 to the ARE
binding of complexes to core ARE sequence (EMSA) [10]: binding was reduced
